These results are taken from patent US4272437A, “Antibacterial agents, and 4-thio azetidinone intermediates” (priority 1979, dated 1981).

For one assay, the system named is Str. pneumoniae A-9585. Description: MIC, tube dilution, Streptococcus pneumoniae A9585. The class given is cell-based. Conditions: overnight 37° C., Nutrient Broth; for MIC: Streptococcus pneumoniae, A9585, Str. pneumoniae A9585, read-out: Minimum Inhibitory Concentration (M.I.C.). The text has this:
(§1) Representative compounds of the present invention were subjected to in vitro antibiotic screening against a variety of microorganisms.

The test system of the next assay is Str. pyogenes A-9604. Description: MIC, tube dilution, Streptococcus pyogenes A9604. Conditions: overnight 37° C., Nutrient Broth; for MIC: Streptococcus pyogenes, A9604, Str. pyogenes A9604, read-out: Minimum Inhibitory Concentration (M.I.C.). Type of assay: cell-based.
Source text: as §1

The subject of another assay is Staph. aureus A-9537. Description: MIC, tube dilution, Staphylococcus aureus A9537. Type of assay: cell-based. As to conditions: overnight 37° C., Nutrient Broth; for MIC: Staphylococcus aureus, A9537, Staph. aureus A9537, read-out: Minimum Inhibitory Concentration (M.I.C.).
Source text: as §1

Assay [1] relates to Staph. aureus A-9537 and 50% serum. As to the kind of experiment: MIC, tube dilution, Staph. aureus A9537 + 50% serum. The class given is cell-based, Staphylococcus aureus. As to conditions: overnight 37° C.; for MIC: Staphylococcus aureus, read-out: Minimum Inhibitory Concentration (M.I.C.).
Source text: as §1

In assay [2] the test system is Staph. aureus (Pen-Res) A-9606. As to the kind of experiment: MIC, tube dilution, Staphylococcus aureus A9606 (Pen-Res). Conditions: overnight 37° C.; for MIC: Staphylococcus aureus. Type of assay: cell-based.
Source text: as §1

The subject of assay [3] is Staph. aureus (Meth-Res) A-15097. As to the kind of experiment: MIC, tube dilution, Staphylococcus aureus A15097 (Meth-Res). The class given is cell-based. Conditions: overnight 37° C.; for MIC: Staphylococcus aureus.
Source text: as §1

The next assay has as its system Str. faecalis A-20688. As to the kind of experiment: MIC, tube dilution, Streptococcus faecalis A20688. The class given is cell-based. As to conditions: overnight 37° C.; for MIC: Enterococcus faecalis, A20688, Str. faecalis A20688, read-out: Minimum Inhibitory Concentration (M.I.C.).
Source text: as §1

For the next assay, the system named is E. coli A-15119. As to the kind of experiment: MIC, tube dilution, Escherichia coli A15119. Type of assay: cell-based. As to conditions: overnight 37° C.; for MIC: Escherichia coli, A15119, E. coli A15119, read-out: Minimum Inhibitory Concentration (M.I.C.).
Source text: as §1

For a further assay, the system named is E. coli A-20341-1. Description: MIC, tube dilution, Escherichia coli A20341-1. Type of assay: cell-based. As to conditions: E. coli A20341-1, overnight 37° C.; for MIC: Escherichia coli, A203411, read-out: Minimum Inhibitory Concentration (M.I.C.).
Source text: as §1

The next assay relates to K. pneumoniae A-15130. Description: MIC, tube dilution, Klebsiella pneumoniae A15130. Type of assay: cell-based. As to conditions: overnight 37° C.; for MIC: Klebsiella pneumoniae, A15130, K. pneumoniae A15130, read-out: Minimum Inhibitory Concentration (M.I.C.).
Source text: as §1

Assay [4] deals with Klebsiella species A20468. Description: MIC, tube dilution, Klebsiella species A20468. The class given is cell-based. As to conditions: Klebsiella species (K. pneumoniae) A20468, overnight 37° C.; for MIC: read-out: Minimum Inhibitory Concentration (M.I.C.).
Source text: as §1

Another assay has as its system Pr. mirabilis A-9900. As to the kind of experiment: MIC, tube dilution, Proteus mirabilis A9900. The class given is cell-based. As to conditions: overnight 37° C.; for MIC: Proteus mirabilis, A9900, Proteus mirabilis A9900, read-out: Minimum Inhibitory Concentration (M.I.C.).
Source text: as §1

Another assay relates to Pr. vulgaris A-9716. Description: MIC, tube dilution, Proteus vulgaris / Proteus mirabilis A9716. Type of assay: cell-based, Proteus vulgaris (name changed to Proteus mirabilis). As to conditions: overnight 37° C.; for MIC: Proteus vulgaris.
Source text: as §1

For the next assay, the system named is Pr. morganii A-15153. Description: MIC, tube dilution, Proteus morganii A15153. The class given is cell-based. Conditions: overnight 37° C.; for MIC: Morganella morganii, A15153, Proteus morganii A15153, read-out: Minimum Inhibitory Concentration (M.I.C.).
Source text: as §1

In assay [5] the test system is Providencia stuartii A21205. Description: MIC, tube dilution, Providencia stuartii (Pr. rettgeri) A21205. The class given is cell-based. As to conditions: for MIC: Providencia stuartii.
Source text: as §1

For the next assay, the system named is Ser. marcescens A-20019. Description: MIC, tube dilution, Serratia marcescens A20019. Type of assay: cell-based. As to conditions: overnight 37° C.; for MIC: Serratia marcescens, A20019, Serratia marcescens A20019, read-out: Minimum Inhibitory Concentration (M.I.C.).
Source text: as §1

The test system of another assay is Ent. cloacae A-9659. Description: MIC, tube dilution, Enterobacter cloacae A9659. Conditions: overnight 37° C.; for MIC: Enterobacter cloacae, A9659, Enterobacter cloacae A9659, read-out: Minimum Inhibitory Concentration (M.I.C.). The class given is cell-based.
Source text: as §1

Another assay concerns Ent. cloacae A-9656. Description: MIC, tube dilution, Enterobacter cloacae A9656. Conditions: Enterobacter cloacae A9656, overnight 37° C.; for MIC: read-out: Minimum Inhibitory Concentration (M.I.C.). The class given is cell-based.
Source text: as §1

For a further assay, the system named is Ps. aeruginosa A-9843A. As to the kind of experiment: MIC, tube dilution, Pseudomonas aeruginosa A9843A. Type of assay: cell-based. As to conditions: overnight 37° C.; for MIC: Pseudomonas aeruginosa, A9843A, read-out: Minimum Inhibitory Concentration (M.I.C.), Pseudomonas aeruginosa A9843A.
Source text: as §1

A further assay relates to Ps. aeruginosa A-21213. As to the kind of experiment: MIC, tube dilution, Pseudomonas aeruginosa A21213. Type of assay: cell-based. Conditions: Pseudomonas aeruginosa A21213, overnight 37° C.; for MIC: read-out: Minimum Inhibitory Concentration (M.I.C.).
Source text: as §1

The mark [6] stands for this setting: Staph. aureus A15097 (Meth-Res).
Setting [7] is: read-out: Minimum Inhibitory Concentration (M.I.C.), Staph. aureus A9606 (Pen-Res).
Where [8] appears, read: A9716, read-out: Minimum Inhibitory Concentration (M.I.C.), Proteus vulgaris / Proteus mirabilis A9716.
Where [9] appears, read: A21205, read-out: Minimum Inhibitory Concentration (M.I.C.).

Like-named read-outs stand apart in the source and are kept apart here. A value given as a limit tells only on which side of the number the result lay.

In the case of `CSC1C(=O)N2C(C(=O)O)=C(C)SC12` (centres unmarked) [Example 5, Potassium 6-Thiomethyl-2-methylpenem-3-carboxylate], the MIC is 0.5 µg/mL in the assay on Str. pneumoniae A-9585; 4 µg/mL in the assay on Str. pyogenes A-9604; 4 µg/mL in the assay on Staph. aureus A-9537; greater than 63 µg/mL in assay [1]; 9 µg/mL in assay [2] (Staph. aureus A9606 (Pen-Res), read-out: Minimum Inhibitory Concentration (M.I.C.)); 63 µg/mL in [3] (Staph. aureus A15097 (Meth-Res), read-out: Minimum Inhibitory Concentration (M.I.C.)). For the same compound, the MIC with Str. faecalis A-20688 is 125 µg/mL; in the assay with E. coli A-15119, 63 µg/mL; in the assay with E. coli A-20341-1, 125 µg/mL; with K. pneumoniae A-15130 it was 63 µg/mL; in [4] it was greater than 125 µg/mL; in the assay on Pr. mirabilis A-9900, 63 µg/mL. The MIC with Pr. vulgaris A-9716 (A9716, Proteus vulgaris / Proteus mirabilis A9716, read-out: Minimum Inhibitory Concentration (M.I.C.)) stood at 32 µg/mL; in the assay with Pr. morganii A-15153 it was 125 µg/mL; in [5] (A21205, Providencia stuartii (Pr. rettgeri) A21205, overnight 37° C., read-out: Minimum Inhibitory Concentration (M.I.C.)), 32 µg/mL; with Ser. marcescens A-20019, 63 µg/mL; in the assay on Ent. cloacae A-9659, 125 µg/mL; with Ent. cloacae A-9656, 125 µg/mL. The MIC with Ps. aeruginosa A-9843A and with Ps. aeruginosa A-21213 was greater than 125 µg/mL throughout.
For the compound “6-Acetoxymethyl-2-methylpenem-3-carboxylic Acid [Example 2]”, the “Minimum Inhibitory Concentration (M.I.C.)” value is 1 µg/mL in the assay with Str. pneumoniae A-9585 (Str. pneumoniae A9585); 2 µg/mL with Str. pyogenes A-9604 (Str. pyogenes A9604); 8 µg/mL in the assay on Staph. aureus A-9537 (Staph. aureus A9537); greater than 63 µg/mL in [1]; 4 µg/mL in [2] (Staph. aureus A9606 (Pen-Res)); 8 µg/mL in assay [3] (setting [6]). Besides, the “Minimum Inhibitory Concentration (M.I.C.)” value was 63 µg/mL in the assay with Str. faecalis A-20688 (Str. faecalis A20688); 32 µg/mL with E. coli A-15119 (E. coli A15119); 32 µg/mL with E. coli A-20341-1; 63 µg/mL in the assay on K. pneumoniae A-15130 (K. pneumoniae A15130); greater than 125 µg/mL in assay [4]; 63 µg/mL in the assay on Pr. mirabilis A-9900 (Proteus mirabilis A9900). Besides, the “Minimum Inhibitory Concentration (M.I.C.)” value with Pr. vulgaris A-9716 (Proteus vulgaris / Proteus mirabilis A9716) was 63 µg/mL; with Pr. morganii A-15153 (Proteus morganii A15153) it was 63 µg/mL; in assay [5] (Providencia stuartii (Pr. rettgeri) A21205, overnight 37° C.), 32 µg/mL; with Ser. marcescens A-20019 (Serratia marcescens A20019), 125 µg/mL; with Ent. cloacae A-9659 (Enterobacter cloacae A9659), 125 µg/mL; in the assay with Ent. cloacae A-9656, greater than 125 µg/mL. Besides, the “Minimum Inhibitory Concentration (M.I.C.)” value with Ps. aeruginosa A-9843A (Pseudomonas aeruginosa A9843A) and in the assay on Ps. aeruginosa A-21213 was greater than 125 µg/mL throughout.
Turning to `CCC1C(=O)N2C(C(=O)[O-])=C(C)S[C@H]12.[Na+]` (stereo partly drawn) [1 (cis), Sodium 6-Ethyl-2-methylpenem-3-carboxylate], the MIC was 4 µg/mL in the assay on Str. pneumoniae A-9585; 4 µg/mL in the assay on Str. pyogenes A-9604; 8 µg/mL with Staph. aureus A-9537; greater than 63 µg/mL in assay [1]; 16 µg/mL in assay [2] (setting [7]); 63 µg/mL in the assay with Str. faecalis A-20688. The MIC is 125 µg/mL with E. coli A-15119; 125 µg/mL in the assay on E. coli A-20341-1; greater than 125 µg/mL in the assay with K. pneumoniae A-15130; greater than 125 µg/mL in assay [4]; 125 µg/mL in the assay on Pr. mirabilis A-9900; 63 µg/mL with Pr. vulgaris A-9716 (setting [8]). The MIC in the assay on Pr. morganii A-15153 is greater than 125 µg/mL; in assay [5] (setting [9]), 63 µg/mL; in the assay with Ser. marcescens A-20019 it was greater than 125 µg/mL; in the assay with Ent. cloacae A-9659, greater than 125 µg/mL; with Ent. cloacae A-9656 it was greater than 125 µg/mL; in the assay with Ps. aeruginosa A-9843A, greater than 125 µg/mL. For the same compound, the MIC in the assay on Ps. aeruginosa A-21213 is greater than 125 µg/mL. Further, in assay [3] (setting [6]), the “Minimum Inhibitory Concentration (M.I.C.)” value is 63 µg/mL.
As to `COCC1=C(C(=O)[O-])N2C(=O)C[C@H]2S1.[Na+]` [Preparation 6, Sodium 2-Methoxymethylpenem-3-carboxylate], the MIC in the assay on Str. pneumoniae A-9585 was 0.06 µg/mL; in the assay on Str. pyogenes A-9604, 0.25 µg/mL; in the assay with Staph. aureus A-9537, 0.5 µg/mL; in assay [1], 32 µg/mL; in [2] (setting [7]), 2 µg/mL; in assay [3] (read-out: Minimum Inhibitory Concentration (M.I.C.), Staph. aureus A15097 (Meth-Res)), greater than 125 µg/mL. For the same compound, the MIC in the assay with Str. faecalis A-20688 is 32 µg/mL; in the assay with E. coli A-15119, 2 µg/mL; with E. coli A-20341-1, 125 µg/mL; in the assay with K. pneumoniae A-15130 it was 8 µg/mL; in assay [4], greater than 125 µg/mL; in the assay with Pr. mirabilis A-9900, 2 µg/mL. The MIC with Pr. vulgaris A-9716 (setting [8]) stood at 2 µg/mL; in the assay on Pr. morganii A-15153, 4 µg/mL; in assay [5] (setting [9]) it was 2 µg/mL; in the assay with Ser. marcescens A-20019, 4 µg/mL; with Ent. cloacae A-9659, 4 µg/mL; with Ent. cloacae A-9656, 8 µg/mL. The MIC in the assay on Ps. aeruginosa A-9843A and in the assay on Ps. aeruginosa A-21213 was greater than 125 µg/mL each time.
